# Laboratory results: US7018615B2, “Method of identifying molecules that home to a selected organ in vivo” (The Burnham Institute, priority 1995, dated 2006)
# Bridge positions count the residues as written; N and C are the ends. Ends that are not written are not given here.
# Legend:
# brain [1] = assay: Homing of individually amplified phage to brain compared with kidney (TU recovered); format: in vivo, mice; settings: phage displaying the peptide, same input titer, TU recovered from each organ
# Experimental: To determine the specificity of brain homing of the individual motifs identified, phage displaying the predominant motifs were amplified individually, diluted to the same input titer and administered to mice. Following administration, brain and kidney were removed and the number of TU of phage in each organ was determined. […] Specifically, the ratio of selective homing (brain:kidney) was about 8 for CNSRLHLRC (SEQ ID NO: 1) and for CLSSRLDAC (SEQ ID NO: 3), 4 for CENWWGDVC (SEQ ID NO: 2) and 9 for […] (SEQ ID NO: 16).
# kidney = assay: Homing of individual phage to kidney compared with brain; format: in vivo, mice; settings: phage expressing the peptide
# Experimental: The same methodology used to isolate phage expressing brain homing peptides was used to isolate phage expressing peptides that home to kidney. In these experiments, brain was used as the control organ. A mixture of the CX5C (SEQ ID NO: 36) and the CX6C (SEQ ID NO: 37) libraries was administered as described above. Homing of phage to the kidney was obtained and an approximately 3× to 7× enrichment of phage homing to kidney was observed following a second round of in vivo panning.
# The amino acid sequences were determined for the inserts in 48 cloned phage that homed to kidney. The peptides expressed by these phage were represented by two predominant sequences, CLPVASC (SEQ ID NO: 21; 46% of the clones sequenced) and CGAREMC (SEQ ID NO: 22; 17% of the clones; see Table 2). In addition, the peptide CKGRSSAC (SEQ ID NO: 23) appeared three times and three other peptides were present twice each.
# brain [2] = assay: Peptide competition: synthetic cyclic peptide co-injected with brain homing phage; format: in vivo, mice; settings: 100 μg synthetic cyclic peptide co-injected with 1×10^8 TU phage
# Experimental: In order to confirm the specificity of a peptide for directing homing to a selected organ, peptide competition experiments were performed. The cyclic peptide, CLSSRLDAC (SEQ ID NO: 3), which is one of the brain homing peptides (see Table 1) was synthesized (Immunodynamics; La Jolla Calif.) and purified by HPLC. The effect on the homing of phage expressing CLSSRLDAC (SEQ ID NO: 3), CENWWGDVC (SEQ ID NO: 2) or […] (SEQ ID NO: 16) to the brain was examined in order to determine whether co-administration of the synthetic peptide affected homing of the phage.
# Phage expressing CLSSRLDAC (SEQ ID NO: 3), CENWWGDVC (SEQ ID NO: 2) or […] (SEQ ID NO: 16) were titrated to the same concentration and 1×10^8 TU was injected into mice alone, or with 100 μg purified synthetic cyclic CLSSRLDAC (SEQ ID NO: 3) peptide. The synthetic CLSSRLDAC (SEQ ID NO: 3) peptide inhibited the homing of phage expressing CLSSRLDAC (SEQ ID NO: 3) by about 60%.
# brain [3] = assay: Homing of 125I-peptide/RBC complex to brain and kidney, alone or with unlabeled peptide; format: in vivo, mouse; settings: for effect of coadministered unlabeled peptide on brain homing of the CLSSRLDAC/RBC complex / effect of coadministered unlabeled peptide on localization of the CLSSRLDAC/RBC complex in the kidney: 10 mM unlabeled peptide coadministered
# Experimental: The synthetic cyclic CLSSRLDAC (SEQ ID NO: 3) peptide (1 mg) was labeled with iodine-125 using the Bolton and Hunter reagent (Amersham; Arlington Heights Ill.). Labeled peptide was purified by reverse phase HPLC on Sep-Pak™ cartridges (Waters, Millipore Corp.; Milford Pa.) and the ^125I-peptide (200 μg) was coupled to 1 ml glutaraldehyde-stabilized sheep RBC (Sigma Chemical Co.; St. Louis Mo.) according to the manufacturer's instructions.
# After 2 min, each mouse was perfused through the heart with 50 ml DMEM and the brain and kidney were removed and assayed for radioactivity.
# Approximately twice as much of the CLSSRLDAC/RBC complex (SEQ ID NO: 3) homed to brain than to kidney. […] Coadministration of unlabeled CVRLNSLAC (SEQ ID NO: 43) had no effect on selective homing of the complex to brain and no effect on the non-specific localization of the complex in the kidney.
Substance,ratio of selective homing (brain:kidney) (brain [1]),ratio of selective kidney:brain homing (kidney),other results
CENWWGDVC (displayed on phage),~4,–,–
CGAREMC (displayed on phage),–,3,–
CKGRSSAC (displayed on phage),–,2,–
CLPVASC (displayed on phage),–,7,–
CLSSRLDAC (disulfide 1-9 (inferred)) [also synthesized as cyclic peptide],about 8,–,effect on homing to brain of CENWWGDVC phage (brain [2]): did not affect; inhibition of homing to brain of phage expressing CLSSRLDAC (brain [2]): about 60%; effect of coadministered unlabeled peptide on brain homing of the CLSSRLDAC/RBC complex (brain [3]): essentially completely inhibited; effect of coadministered unlabeled peptide on localization of the CLSSRLDAC/RBC complex in the kidney (brain [3]): had no effect
CNSRLHLRC (displayed on phage),about 8,–,–
CVRLNSLAC,–,–,effect of coadministered unlabeled peptide on brain homing of the CLSSRLDAC/RBC complex (brain [3]): had no effect; effect of coadministered unlabeled peptide on localization of the CLSSRLDAC/RBC complex in the kidney (brain [3]): no effect; brain homing activity (brain [3]; stated for the control peptide): no brain homing activity
WRCVLREGPAGGCAWFNRHRL (displayed on phage),~9,–,–
